Experimental data: US10799464B2, “Delivery systems” (Textile-Based Delivery, Inc., priority 2014, dated 2020)
Values belong to the compound of their own block, whether it stands above or below them.

Key:
[1] = Use testing of allantoin-loaded yarn; format: in vivo; conditions: 25% in RTV imbibed into 40 Denier texturized nylon yarn
Text: Allantoin, which is frequently used as an active in skin creams, was dispersed in RTV at 25%, and this matrix imbibed into a 40 Denier texturized nylon yarn. Some of this was plied with a 40 Denier nylon yarn. Another portion was air-covered with a spandex yarn.

[2] = Franz cell transdermal delivery test
Method: This was then tested in a Franz cell apparatus (Zyleris Pharmatech) for its ability to deliver the active (arecoline) transdermally.
The test article, in this case the aforementioned arecoline-loaded fabric, was placed atop a small piece of freshly excised skin, in this case from a pig's ear; below the skin was a reservoir containing bovine serum albumin buffer to simulate blood plasma. In order to reach the reservoir, the active had to diffuse transdermally across the layer of skin. Three such Franz cells were used so that the experiment was done in triplicate. A small aliquot was drawn from each reservoir at the 24-hour point and tested for arecoline as now described.
A reference arecoline solution was prepared by dissolving approximately 3 milligrams arecoline hydrobromide (ScienceLab.com) in approximately 0.5 milliliters of bovine serum albumin buffer, for an approximate concentration of about 6 milligrams/milliliter. The reference solution was spotted alongside all three samples (labelled R7, R8 and R9) on a TLC plate at the origin. After driving out the water from the spots with heat, the spotted TLC plate was allowed to cool, then developed in 100% methanol inside a developing tank. […]

[3] = Release test on fabric swatches after washing or dyeing (retention of active), absorbance at 280 nm; format: physicochemical
Method: This Example provides exemplary release tests on fabrics from yarns of the disclosure. These release measurements were performed on small swatches of fabric produced from yarn of the disclosure, and washed or otherwise stressed before release testing. Release was used to quantify how much active is retained intact after the stress. No coating was necessary for this test. Retention of active through stresses such as washes and scouring is a key distinguishing benefit of yarns of this disclosure and enables medicated fabrics that can be applied in a wide range of applications that demand washability in order to be commercially viable.
(§1) Aspirin (acetylsalicylic acid) was ground to a fine powder and dispersed at 25% wt/wt in Novagard 200-260. This was imbibed into a texturized 70 Denier nylon yarn, then plied with a textured 70 Denier nylon yarn. The yarn was then knitted into several sleeves.
Washing with hot detergent water was then done once (on swatch #2), 5 times (swatch #3), or 10 times (swatch #4). Swatch #1 was the control with zero washings. Each swatch, a fixed 1-inch square, was placed in water for release, and after two days the absorbance measured at 280 nanometers.
Another sleeve was dyed using a standard dyeing process, which included scouring at the upper limit of the normal range of temperatures in dyeing, namely 220° F. for 45 minutes. […] Over 50% potency was retained through this intense process.

[4] = Informal wear test of aspirin sleeve; format: in vivo; conditions: sleeve worn on the elbow or knee
Text: as §1

[5] = typical topical cream, depending on the severity of pain; cited from earlier work

Compound: NC(=O)NC1NC(=O)NC1=O (stereo not drawn) [Allantoin]
skin effect (in words) [1]: skin-soothing, softening effect

Compound: COC(=O)C1=CCCN(C)C1 [arecoline]
concentration of arecoline in the reservoirs ([2]; 24-hour point, uncoated fabric of polyester yarn imbibed with 10% arecoline hydrobromide in Novagard 200-260, TLC spot intensity vs reference): ~5 milligrams/milliliters
transdermal delivery (in words) ([2]; pig ear skin Franz cell model, imbibed yarn): effective

Absorbance (at 280 nm) ([3]; 1 wash with hot detergent water, 1-inch square swatch in water, two days): 0.077
Absorbance (at 280 nm) ([3]; 5 washes with hot detergent water, 1-inch square swatch in water, two days): 0.038
Absorbance (at 280 nm) ([3]; 10 washes with hot detergent water, 1-inch square swatch in water, two days): 0.045
Absorbance (at 280 nm) ([3]; Control (0 washes), 1-inch square swatch in water, two days): 0.097
Absorbance (at 280 nm) ([3]; Dyed (scouring at 220° F. for 45 minutes)): 0.051
retention of the active ([3]; after 10 washings): about 45%
potency retained ([3]; after standard dyeing process, scouring 220° F. for 45 minutes): Over 50%
Compound: CC(=O)Oc1ccccc1C(=O)O [Aspirin, acetylsalicylic acid]
analgesia (in words) [4]: significant analgesia

Compound: COc1cc(CNC(=O)CCCC/C=C/C(C)C)ccc1O [capsaicin]
effective daily dose for relief in the foot, ankle, and calf [5]: 0.5 to 6 mg
